According to ChEMBL document CHEMBL1201862, “PubChem BioAssay data set” (2004):
Active and inactive are the calls of the source.

Columns and labels:
[1] = biological target: Lysine-specific demethylase 4A (Homo sapiens, UniProt O75164); assay: JMJD2A histone demethylase inhibitors, dose response, selectivity assay for GASC-1 inhibitor project, biochemical, DELFIA europium, cherry-picked samples (AID 488840)
[2] = biological target: Lysine-specific demethylase 4C (Homo sapiens, UniProt Q9H3R0); assay: GASC-1 (JMJD2C) histone demethylase inhibitors, dose response, biochemical, DELFIA europium, cherry-picked samples (AID 488835); format: functional
[3] = biological target: T1, Mannose-6-phosphate isomerase (Homo sapiens, UniProt P34949); assay: human PMI inhibitors, high substrate, primary screen, biochemical, fluorescence intensity, high mannose 6-phosphate (AID 1220)
T1 sequence (P34949 whole entry): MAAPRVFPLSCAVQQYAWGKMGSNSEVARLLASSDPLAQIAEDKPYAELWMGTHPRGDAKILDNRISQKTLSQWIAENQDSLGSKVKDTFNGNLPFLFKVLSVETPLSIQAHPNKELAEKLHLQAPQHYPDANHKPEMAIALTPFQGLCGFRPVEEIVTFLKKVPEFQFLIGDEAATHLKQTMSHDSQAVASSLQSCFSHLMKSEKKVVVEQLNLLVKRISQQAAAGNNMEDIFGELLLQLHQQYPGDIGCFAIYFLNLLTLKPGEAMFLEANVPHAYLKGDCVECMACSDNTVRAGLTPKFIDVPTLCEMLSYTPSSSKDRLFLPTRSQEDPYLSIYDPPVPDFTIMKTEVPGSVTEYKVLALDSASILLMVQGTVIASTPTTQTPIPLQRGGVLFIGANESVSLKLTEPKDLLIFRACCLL

[4] = biological target: T2, Intestinal-type alkaline phosphatase (Homo sapiens, UniProt P09923); assay: human IAP activators, dose response, biochemical, luminescent, uHTS hits, set 2 (AID 488817); format: functional;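 also: potency of activators that raise enzyme activity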
T2 sequence (P09923 whole entry): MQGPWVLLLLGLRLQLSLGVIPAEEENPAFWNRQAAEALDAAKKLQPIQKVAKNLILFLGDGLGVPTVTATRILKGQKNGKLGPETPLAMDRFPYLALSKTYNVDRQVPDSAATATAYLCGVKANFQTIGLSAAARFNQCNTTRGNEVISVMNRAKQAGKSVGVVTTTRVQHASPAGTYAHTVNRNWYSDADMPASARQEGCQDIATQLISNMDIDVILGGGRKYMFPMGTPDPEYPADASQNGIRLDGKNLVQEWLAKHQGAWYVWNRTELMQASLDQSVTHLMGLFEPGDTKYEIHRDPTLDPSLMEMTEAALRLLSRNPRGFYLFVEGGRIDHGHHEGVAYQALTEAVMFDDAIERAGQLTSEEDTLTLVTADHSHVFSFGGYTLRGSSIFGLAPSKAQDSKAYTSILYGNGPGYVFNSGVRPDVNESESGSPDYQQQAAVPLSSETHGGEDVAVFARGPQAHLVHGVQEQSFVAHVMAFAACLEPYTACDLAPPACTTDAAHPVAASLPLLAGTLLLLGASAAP

[5] = biological target: Intestinal-type alkaline phosphatase (Mus musculus, UniProt P24822); assay: PubChem AID 488875; format: functional
[6] = biological target: T2, Intestinal-type alkaline phosphatase; assay: human intestinal alkaline phosphatase activators, dose response, biochemical, luminescence, uHTS hits (AID 463120); format: functional
[7] = biological target: T3, Alkaline phosphatase, tissue-nonspecific isozyme (Homo sapiens, UniProt P05186); assay: TNAP enzyme activators, dose response, selectivity assay for human IAP activator project, biochemical, TNAP isozyme, human IAP uHTS hits (AID 488886); format: functional;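 also: potency of compounds raising TNAP activity as a selectivity check on IAP activators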
T3 sequence (P05186 whole entry): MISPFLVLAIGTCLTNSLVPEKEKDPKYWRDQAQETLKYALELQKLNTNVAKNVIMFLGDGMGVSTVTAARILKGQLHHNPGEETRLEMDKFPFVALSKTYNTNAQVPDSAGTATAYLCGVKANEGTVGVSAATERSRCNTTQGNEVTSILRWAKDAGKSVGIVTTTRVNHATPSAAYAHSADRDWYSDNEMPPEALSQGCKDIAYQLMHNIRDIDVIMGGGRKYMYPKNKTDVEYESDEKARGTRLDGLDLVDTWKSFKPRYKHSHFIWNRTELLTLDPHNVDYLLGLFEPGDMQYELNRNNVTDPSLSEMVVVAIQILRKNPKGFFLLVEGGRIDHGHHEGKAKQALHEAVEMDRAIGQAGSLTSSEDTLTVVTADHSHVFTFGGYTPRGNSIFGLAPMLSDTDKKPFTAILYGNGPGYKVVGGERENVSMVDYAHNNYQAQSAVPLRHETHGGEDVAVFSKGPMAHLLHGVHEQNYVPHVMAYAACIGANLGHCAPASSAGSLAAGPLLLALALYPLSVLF

[8] = biological target: T4, Kappa-type opioid receptor (Homo sapiens, UniProt P41145); assay: KOR antagonists by imaging, SAR follow-up, image-based (AID 2348); format: functional
T4 sequence (P41145 whole entry): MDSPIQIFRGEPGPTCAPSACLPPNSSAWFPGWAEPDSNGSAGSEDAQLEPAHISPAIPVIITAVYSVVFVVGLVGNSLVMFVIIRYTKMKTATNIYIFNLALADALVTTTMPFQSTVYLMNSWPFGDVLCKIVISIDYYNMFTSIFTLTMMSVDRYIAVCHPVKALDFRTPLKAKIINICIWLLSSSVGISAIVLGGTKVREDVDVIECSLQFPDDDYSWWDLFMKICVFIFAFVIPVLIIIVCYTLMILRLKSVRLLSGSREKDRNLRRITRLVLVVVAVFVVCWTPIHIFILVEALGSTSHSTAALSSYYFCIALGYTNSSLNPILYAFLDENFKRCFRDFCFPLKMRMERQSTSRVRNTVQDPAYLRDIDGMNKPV

Mu-type opioid receptor [9] = biological target: T5, Mu-type opioid receptor (Homo sapiens, UniProt P35372); assay: MOR agonists by imaging, SAR follow-up, image-based (AID 2352); format: functional
T5 sequence (P35372 whole entry): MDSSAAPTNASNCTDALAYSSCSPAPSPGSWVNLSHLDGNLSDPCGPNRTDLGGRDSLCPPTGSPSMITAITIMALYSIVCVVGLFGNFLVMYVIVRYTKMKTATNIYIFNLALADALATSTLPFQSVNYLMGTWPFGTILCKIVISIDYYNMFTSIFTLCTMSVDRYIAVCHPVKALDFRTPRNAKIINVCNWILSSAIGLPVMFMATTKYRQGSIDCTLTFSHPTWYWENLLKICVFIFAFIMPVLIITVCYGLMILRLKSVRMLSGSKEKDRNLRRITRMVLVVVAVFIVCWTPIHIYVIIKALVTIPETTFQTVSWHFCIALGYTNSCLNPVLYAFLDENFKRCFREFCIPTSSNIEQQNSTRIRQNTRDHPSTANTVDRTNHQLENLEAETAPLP

Mu-type opioid receptor [10] = biological target: T5, Mu-type opioid receptor; assay: MOR antagonists, SAR follow-up, image-based (AID 2420); format: functional;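 also: compounds added before stimulation of receptor with agonist DAMGO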
[11] = biological target: T6, Delta-type opioid receptor (Homo sapiens, UniProt P41143); assay: DOR antagonists, SAR follow-up, image-based (AID 2357); format: functional
T6 sequence (P41143 whole entry): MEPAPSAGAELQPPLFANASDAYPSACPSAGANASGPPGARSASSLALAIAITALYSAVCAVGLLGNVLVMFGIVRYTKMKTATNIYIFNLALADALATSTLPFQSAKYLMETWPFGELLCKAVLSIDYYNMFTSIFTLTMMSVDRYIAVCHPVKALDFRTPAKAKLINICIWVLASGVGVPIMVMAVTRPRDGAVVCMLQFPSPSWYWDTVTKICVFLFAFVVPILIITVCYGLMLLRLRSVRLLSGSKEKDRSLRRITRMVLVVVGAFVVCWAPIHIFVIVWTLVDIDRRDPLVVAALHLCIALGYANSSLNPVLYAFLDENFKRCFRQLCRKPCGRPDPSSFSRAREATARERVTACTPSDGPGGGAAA

[12] = biological target: T4, Kappa-type opioid receptor; assay: KOR agonist analogs, imaging readout, SAR follow-up, image-based (AID 2359); format: functional
[13] = biological target: T4, Kappa-type opioid receptor; assay: kappa opioid receptor blockers, cell-based, luminescence, beta-arrestin, SAR follow-up (AID 2285); format: functional
[14] = biological target: T6, Delta-type opioid receptor; assay: DOR agonists, SAR follow-up, image-based (AID 2370); format: functional
[15] = biological target: T7, G-protein coupled receptor 55 (Homo sapiens, UniProt Q9Y2T6); assay: GPR55 agonists via beta-arrestin recruitment, primary screen, imaging, U2OS cells, beta-arrestin-GFP redistribution (AID 1961); format: functional
T7 sequence (Q9Y2T6 whole entry): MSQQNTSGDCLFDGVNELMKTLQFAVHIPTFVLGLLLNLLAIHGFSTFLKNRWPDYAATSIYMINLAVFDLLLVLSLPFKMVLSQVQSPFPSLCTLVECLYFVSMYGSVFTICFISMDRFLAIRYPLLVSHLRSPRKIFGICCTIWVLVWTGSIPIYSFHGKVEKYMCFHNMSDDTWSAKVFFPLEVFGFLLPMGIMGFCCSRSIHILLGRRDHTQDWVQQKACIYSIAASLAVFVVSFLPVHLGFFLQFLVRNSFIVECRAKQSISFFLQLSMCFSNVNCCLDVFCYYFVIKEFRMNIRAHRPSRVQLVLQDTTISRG

Cannabinoid receptor 2 [16] = biological target: T8, Cannabinoid receptor 2 (Homo sapiens, UniProt P34972); assay: SAR analysis of agonists of the Cannabinoid Receptor 2 using an Image-Based Assay - Set 2. [Related pubchem assays (depositor defined):AID1961, AID1965]; format: functional
T8 sequence (P34972 whole entry): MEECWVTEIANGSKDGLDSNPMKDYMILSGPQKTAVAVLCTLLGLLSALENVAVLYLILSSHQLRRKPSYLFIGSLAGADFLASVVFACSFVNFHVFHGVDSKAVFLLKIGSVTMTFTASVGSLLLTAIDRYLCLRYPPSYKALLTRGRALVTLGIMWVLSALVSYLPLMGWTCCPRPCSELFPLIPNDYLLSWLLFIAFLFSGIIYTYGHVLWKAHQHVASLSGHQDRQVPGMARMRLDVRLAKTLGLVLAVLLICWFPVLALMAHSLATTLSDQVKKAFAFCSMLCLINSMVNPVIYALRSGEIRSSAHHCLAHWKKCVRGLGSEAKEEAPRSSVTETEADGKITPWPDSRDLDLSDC

[17] = biological target: T7, G-protein coupled receptor 55; assay: SAR analysis of selective Agonists of GPR55 using an Image-Based Assay. [Related pubchem assays (depositor defined):AID1961, AID1965]; format: functional
Cannabinoid receptor 1 = Cannabinoid receptor 1 (Homo sapiens, UniProt P21554); assay: SAR analysis of antagonists of the Cannabinoid Receptor 1 using an Image-Based Assay. [Related pubchem assays (depositor defined):AID1961, AID1965]; format: functional
Sequence of Cannabinoid receptor 1 (P21554 whole entry): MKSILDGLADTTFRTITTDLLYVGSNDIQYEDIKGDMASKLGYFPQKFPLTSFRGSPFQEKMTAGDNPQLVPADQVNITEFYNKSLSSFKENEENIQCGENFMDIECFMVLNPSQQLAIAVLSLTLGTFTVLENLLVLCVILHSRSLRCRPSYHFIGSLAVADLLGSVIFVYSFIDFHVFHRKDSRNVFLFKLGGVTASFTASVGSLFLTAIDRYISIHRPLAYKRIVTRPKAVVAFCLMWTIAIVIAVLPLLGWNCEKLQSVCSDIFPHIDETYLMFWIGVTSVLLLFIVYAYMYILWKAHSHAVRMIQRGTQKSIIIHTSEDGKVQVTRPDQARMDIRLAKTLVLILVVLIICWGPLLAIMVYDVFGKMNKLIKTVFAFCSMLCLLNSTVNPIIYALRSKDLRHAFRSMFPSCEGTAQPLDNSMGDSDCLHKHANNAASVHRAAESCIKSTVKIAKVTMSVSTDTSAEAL

Cannabinoid receptor 2 [18] = biological target: T8, Cannabinoid receptor 2; assay: SAR analysis of antagonists of the Cannabinoid Receptor 2 using an Image-Based Assay - Set 2. [Related pubchem assays (depositor defined):AID1961, AID1965]; format: functional
[19] = biological target: Dual specificity protein phosphatase 3 (Homo sapiens, UniProt P51452); assay: SAR VHR1 Fluorescent Assay for In Vitro dose response studies Set 2. [Related pubchem assays (depositor defined):AID1654, AID1661, AID1878]; format: functional
Sequence of Dual specificity protein phosphatase 3 (P51452 whole entry): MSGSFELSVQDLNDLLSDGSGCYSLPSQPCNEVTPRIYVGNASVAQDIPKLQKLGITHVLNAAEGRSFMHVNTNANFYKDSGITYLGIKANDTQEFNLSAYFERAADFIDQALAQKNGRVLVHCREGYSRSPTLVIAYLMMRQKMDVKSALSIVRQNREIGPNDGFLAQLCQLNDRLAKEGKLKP

[20] = biological target: T9, Polyadenylate-binding protein 1 (Homo sapiens, UniProt P11940); assay: PABP1 MLLE–PAM2 binding inhibitor potency, dose response, biochemical, fluorescence polarization, FITC-PAM2 peptide (AID 602259); format: functional; details: read-out: IC50_Mean
T9 sequence (P11940 whole entry): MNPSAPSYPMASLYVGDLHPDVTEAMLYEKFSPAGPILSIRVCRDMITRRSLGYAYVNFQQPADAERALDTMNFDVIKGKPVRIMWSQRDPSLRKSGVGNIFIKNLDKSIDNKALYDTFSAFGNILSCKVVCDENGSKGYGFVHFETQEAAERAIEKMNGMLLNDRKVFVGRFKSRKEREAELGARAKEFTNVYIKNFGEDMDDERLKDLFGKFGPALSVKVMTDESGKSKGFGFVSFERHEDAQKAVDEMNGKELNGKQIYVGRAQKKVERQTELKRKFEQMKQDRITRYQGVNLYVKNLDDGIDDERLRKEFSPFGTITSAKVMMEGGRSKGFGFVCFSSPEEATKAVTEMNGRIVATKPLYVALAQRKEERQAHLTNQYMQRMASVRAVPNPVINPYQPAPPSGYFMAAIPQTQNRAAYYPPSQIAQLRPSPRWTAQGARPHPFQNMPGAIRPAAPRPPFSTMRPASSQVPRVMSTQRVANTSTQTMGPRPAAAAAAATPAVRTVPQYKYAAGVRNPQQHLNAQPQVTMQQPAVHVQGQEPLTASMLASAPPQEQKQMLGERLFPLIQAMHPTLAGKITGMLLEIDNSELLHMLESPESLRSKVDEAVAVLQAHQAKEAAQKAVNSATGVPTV

[21] = biological target: T9, Polyadenylate-binding protein 1; assay: PABP1 MLLE–PAM2 interaction inhibitors, dose response, miRNA deadenylation inhibitor project, biochemical, fluorescence polarization, Cy5-PAM2 peptide, secondary (AID 602260); format: functional; details: read-out: IC50_Mean
[22] = biological target: T10, Tyrosine-protein phosphatase non-receptor type 7 (Homo sapiens, UniProt P35236); assay: SAR analysis of chemical inhibitors of HePTP using a Fluorescent assay - Set 2. [Related pubchem assays (depositor defined):AID1059, AID1077, AID1661, AID2085, AID521]; format: functional
T10 sequence (P35236 whole entry): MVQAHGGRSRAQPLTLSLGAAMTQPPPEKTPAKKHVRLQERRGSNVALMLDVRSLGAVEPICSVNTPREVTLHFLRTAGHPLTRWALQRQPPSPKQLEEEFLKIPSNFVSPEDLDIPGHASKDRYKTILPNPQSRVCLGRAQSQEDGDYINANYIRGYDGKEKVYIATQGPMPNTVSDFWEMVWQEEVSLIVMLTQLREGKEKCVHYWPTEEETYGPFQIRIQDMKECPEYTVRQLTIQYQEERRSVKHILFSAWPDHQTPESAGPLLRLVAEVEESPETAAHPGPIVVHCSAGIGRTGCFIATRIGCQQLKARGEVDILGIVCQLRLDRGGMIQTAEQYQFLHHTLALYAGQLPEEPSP

[23] = Counterscreen for AddAB inhibitors: absorbance-based bacterial cell-based high throughput dose response assay for inhibitors of bacterial viability. [Related pubchem assays (depositor defined):AID435030, AID449728, AID449731, AID488942, AID488955, AID488956]; format: functional
[24] = Vero E6 cell cytotoxicity, dose response, cytotoxicity control for non-replicating M. tuberculosis project, secondary assay (AID 492998); format: functional, VeroE6; details: Vero C1008
[25] = Luminescence Cell-Based Dose Retest to Confirm Inhibitors of Cancer Stem Cells. [Related pubchem assays (depositor defined):AID2717, AID2721]; format: functional; details: Homo sapiens
Exodeoxyribonuclease V = Exodeoxyribonuclease V (Escherichia coli (strain K12), UniProt P04993+P07648+P08394); assay: E. coli RecBCD inhibitors, dose response, counter-screen for AddAB inhibitor project, absorbance, V66 E. coli, mutant T4 phage (AID 492957); format: functional, cell-based, Escherichia coli str. K-12 substr. MG1655
cells = format: functional
[26] = HepG2 cell cytotoxicity, dose response, cytotoxicity control for non-replicating M. tuberculosis project (AID 489018); format: functional; details: Mycobacterium tuberculosis
[27] = THP-1 cell cytotoxicity, dose response, cytotoxicity control for non-replicating M. tuberculosis project (AID 489025); format: functional
[28] = biological target: Heat shock protein HSP 90-alpha (Homo sapiens, UniProt P07900); format: functional, organism-based
Cytochrome P450 2C19 = Cytochrome P450 2C19 (Homo sapiens, UniProt P33261); assay: Cytochrome panel assay with activity outcomes. Panel member name: p450-cyp2c19 Compounds with AC50 equal or less than 10 uM are considered active; format: functional
Cytochrome P450 2D6 = Cytochrome P450 2D6 (Homo sapiens, UniProt P10635);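 also: CYP2D6 member of a cytochrome P450 panel assay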
Sequence of Cytochrome P450 2D6 (P10635 whole entry): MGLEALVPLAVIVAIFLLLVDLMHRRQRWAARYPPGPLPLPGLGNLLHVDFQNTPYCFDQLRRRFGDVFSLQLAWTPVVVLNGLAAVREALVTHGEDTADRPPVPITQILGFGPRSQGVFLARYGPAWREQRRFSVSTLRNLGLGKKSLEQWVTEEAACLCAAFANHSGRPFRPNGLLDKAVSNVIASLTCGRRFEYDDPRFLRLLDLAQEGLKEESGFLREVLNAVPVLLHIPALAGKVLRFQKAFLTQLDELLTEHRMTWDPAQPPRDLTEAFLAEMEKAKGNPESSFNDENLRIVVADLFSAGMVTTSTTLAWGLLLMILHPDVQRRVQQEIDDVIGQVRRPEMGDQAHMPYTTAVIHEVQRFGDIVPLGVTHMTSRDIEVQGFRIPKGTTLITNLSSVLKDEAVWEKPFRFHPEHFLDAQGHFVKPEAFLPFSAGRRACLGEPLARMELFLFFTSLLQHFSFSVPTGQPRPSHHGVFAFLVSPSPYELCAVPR

Cytochrome P450 2C9 = Cytochrome P450 2C9 (Homo sapiens, UniProt P11712)
Sequence of Cytochrome P450 2C9 (P11712 whole entry): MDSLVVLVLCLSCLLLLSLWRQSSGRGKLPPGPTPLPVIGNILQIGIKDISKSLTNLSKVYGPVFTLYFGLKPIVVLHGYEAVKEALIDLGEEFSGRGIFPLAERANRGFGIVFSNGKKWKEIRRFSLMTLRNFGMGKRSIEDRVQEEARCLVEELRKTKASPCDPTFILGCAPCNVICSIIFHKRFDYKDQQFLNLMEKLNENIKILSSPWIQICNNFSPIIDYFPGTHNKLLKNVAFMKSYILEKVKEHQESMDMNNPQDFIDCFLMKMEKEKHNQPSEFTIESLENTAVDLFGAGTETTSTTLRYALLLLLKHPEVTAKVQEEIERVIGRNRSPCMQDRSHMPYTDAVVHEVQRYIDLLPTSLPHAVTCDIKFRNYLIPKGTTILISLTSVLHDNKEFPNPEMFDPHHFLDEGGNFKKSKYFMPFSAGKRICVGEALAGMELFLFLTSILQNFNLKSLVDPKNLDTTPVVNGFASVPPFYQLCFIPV

Cytochrome P450 1A2 = biological target: T11, Cytochrome P450 1A2 (Homo sapiens, UniProt P05177);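 also: PubChem cytochrome P450 panel assay, CYP1A2 panel member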
T11 sequence (P05177 whole entry): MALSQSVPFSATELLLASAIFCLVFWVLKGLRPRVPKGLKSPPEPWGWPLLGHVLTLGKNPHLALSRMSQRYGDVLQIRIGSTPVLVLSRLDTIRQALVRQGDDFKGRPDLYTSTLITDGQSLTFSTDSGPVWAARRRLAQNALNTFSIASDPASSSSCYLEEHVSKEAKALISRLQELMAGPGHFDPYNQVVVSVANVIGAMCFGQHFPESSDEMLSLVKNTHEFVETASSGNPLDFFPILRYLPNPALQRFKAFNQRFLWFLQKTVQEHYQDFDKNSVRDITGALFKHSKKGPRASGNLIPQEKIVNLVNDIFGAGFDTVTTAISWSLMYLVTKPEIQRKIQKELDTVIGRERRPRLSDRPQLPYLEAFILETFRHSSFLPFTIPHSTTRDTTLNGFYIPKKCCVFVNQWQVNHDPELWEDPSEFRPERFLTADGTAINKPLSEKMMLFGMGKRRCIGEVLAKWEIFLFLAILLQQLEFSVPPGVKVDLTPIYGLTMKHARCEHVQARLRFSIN

[29] = biological target: T10, Tyrosine-protein phosphatase non-receptor type 7; assay: HePTP (PTPN7) phosphatase inhibitor potency, SAR follow-up, biochemical, set 2 (AID 449736); format: functional

## Cc1ccc2[nH]c(=O)c(C=C3C(=O)NC(=O)NC3=O)cc2c1
[1]
  AC50: 26.9 µM (active)
[2]
  AC50: 46.5 µM (active)
[3]
  IC50: > 50 µM (not active)

## CC(C)(C)NC(=O)C(=O)NNC(=O)COc1ccccc1
[4]
  EC50: 28.4 µM (active)
[5]
  EC50: > 100 µM (inactive)
[6]
  EC50: 28 µM (active)
[7]
  EC50: 36.4 µM (active)

## Cc1ccc(C)c(NC(S)=NC(NC(=O)OCc2ccccc2)C(Cl)(Cl)Cl)c1 (stereo unspecified)
[8]
  IC50: 1.53 µM (active)
Mu-type opioid receptor [9]
  EC50: > 32 µM (inactive)
Mu-type opioid receptor [10]
  IC50: > 32 µM (inactive)
[11]
  IC50: > 32 µM (inactive)
[12]
  EC50: > 32 µM (inactive)
[13]
  IC50: 6.2 µM (active)
[14]
  EC50: > 32 µM (inactive)

## CC(C)NS(=O)(=O)c1ccc(NC(=S)NC(=O)c2ccc(-c3ccccc3)cc2)cc1
[15]
  EC50: 0.544 µM (active)
Cannabinoid receptor 2 [16]
  EC50: > 32 µM (inactive)
[17]
  EC50: 0.354 µM (active)
Cannabinoid receptor 1
  IC50: > 32 µM (inactive)
Cannabinoid receptor 2 [18]
  IC50: > 32 µM (inactive)
[19]
  IC50: > 100 µM (inactive)
[20]
  IC50: > 66 µM (inactive)
[21]
  IC50: > 66 µM (inactive)
[22]
  IC50: > 100 µM (inactive)

## O=C(Nc1nc(-c2cccs2)cs1)c1ccc([N+](=O)[O-])o1
[23]
  IC50: > 118 µM (inactive)
[24]
  CC50: > 20 µM (active)
[25]
  AC50: 1.52 µM (active)
Exodeoxyribonuclease V
  IC50: > 118 µM (inactive)
cells
  IC50: 0.61 µM (active)
[26]
  CC50: 9.45 µM (active)
[27]
  CC50: 9.67 µM (active)
[28]
  AC50: 2.32 µM (active)

## O=C(c1cc(C(F)(F)F)cc(C(F)(F)F)c1)N1CCC2(CC1)CN(c1ncccn1)C2
Cytochrome P450 2C19
  AC50: inconclusive
Cytochrome P450 2D6
  AC50: inconclusive
Cytochrome P450 2C9
  AC50: inconclusive
Cytochrome P450 1A2
  AC50: inconclusive

## COc1ccc(Cl)cc1-n1c(N)c(C(=O)N2CCOCC2)sc1=S
[29]
  IC50: > 100 µM (inactive)
